Results: ChEMBL document CHEMBL1141862, “Pyrimido-oxazepine as a versatile template for the development of inhibitors of specific kinases” (Bioorg Med Chem Lett, 2005)
pIC50: −log10 of the molar value. Activity calls are given as the source filed them. The rule behind the calls is not given here.

Legend:
[1] = target: T1, Aurora kinase A (Homo sapiens, UniProt O14965); assay: Inhibitory activity against Aurora A kinase
T1 sequence (O14965 whole entry): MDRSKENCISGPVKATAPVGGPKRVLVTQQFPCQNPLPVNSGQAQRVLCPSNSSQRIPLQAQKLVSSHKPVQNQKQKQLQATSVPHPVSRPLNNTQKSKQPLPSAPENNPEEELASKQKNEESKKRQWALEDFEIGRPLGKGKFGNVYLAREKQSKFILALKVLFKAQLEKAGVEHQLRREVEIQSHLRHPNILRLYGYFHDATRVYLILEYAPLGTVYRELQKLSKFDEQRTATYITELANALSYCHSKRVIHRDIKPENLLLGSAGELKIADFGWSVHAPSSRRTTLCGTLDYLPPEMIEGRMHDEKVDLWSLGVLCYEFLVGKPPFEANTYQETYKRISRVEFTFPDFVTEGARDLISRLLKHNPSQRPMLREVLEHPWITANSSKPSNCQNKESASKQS

[2] = target: Epidermal growth factor receptor (Homo sapiens) (UniProt P00533); assay: Inhibitory activity against EGFR at 25 uM
[3] = target: Vascular endothelial growth factor receptor 2 (Homo sapiens, UniProt P35968); assay: Inhibitory activity against KDR
[4] = target: T2, Cytoplasmic tyrosine-protein kinase BMX (Homo sapiens) (UniProt P51813); assay: Inhibitory activity against ETK at 25 uM
T2 sequence (whole entry): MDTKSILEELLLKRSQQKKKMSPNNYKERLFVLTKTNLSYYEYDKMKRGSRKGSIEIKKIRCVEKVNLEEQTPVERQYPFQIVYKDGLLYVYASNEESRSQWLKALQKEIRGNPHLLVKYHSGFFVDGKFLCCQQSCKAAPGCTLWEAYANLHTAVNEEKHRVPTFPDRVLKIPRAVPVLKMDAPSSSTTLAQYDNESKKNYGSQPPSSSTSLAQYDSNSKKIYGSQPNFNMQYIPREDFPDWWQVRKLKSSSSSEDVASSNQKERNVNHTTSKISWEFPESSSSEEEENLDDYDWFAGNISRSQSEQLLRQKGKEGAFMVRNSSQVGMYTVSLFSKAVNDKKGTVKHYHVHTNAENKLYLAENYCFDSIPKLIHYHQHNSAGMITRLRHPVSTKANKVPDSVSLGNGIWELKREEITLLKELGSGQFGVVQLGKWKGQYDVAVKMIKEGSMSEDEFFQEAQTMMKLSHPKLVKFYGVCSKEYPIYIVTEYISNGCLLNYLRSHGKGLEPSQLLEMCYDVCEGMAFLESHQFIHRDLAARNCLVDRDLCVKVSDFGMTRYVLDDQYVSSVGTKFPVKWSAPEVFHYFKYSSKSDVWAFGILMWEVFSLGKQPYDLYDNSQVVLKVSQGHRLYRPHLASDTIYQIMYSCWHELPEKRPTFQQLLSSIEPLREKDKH

[5] = target: Vascular endothelial growth factor receptor 1 (Homo sapiens) (UniProt P17948); assay: Inhibitory activity against FLT1 at 25 uM
[6] = target: T3, Receptor-type tyrosine-protein kinase FLT3 (Homo sapiens, UniProt P36888); assay: Inhibitory activity against FLT3 kinase in a HTRF assay
T3 sequence (P36888 whole entry): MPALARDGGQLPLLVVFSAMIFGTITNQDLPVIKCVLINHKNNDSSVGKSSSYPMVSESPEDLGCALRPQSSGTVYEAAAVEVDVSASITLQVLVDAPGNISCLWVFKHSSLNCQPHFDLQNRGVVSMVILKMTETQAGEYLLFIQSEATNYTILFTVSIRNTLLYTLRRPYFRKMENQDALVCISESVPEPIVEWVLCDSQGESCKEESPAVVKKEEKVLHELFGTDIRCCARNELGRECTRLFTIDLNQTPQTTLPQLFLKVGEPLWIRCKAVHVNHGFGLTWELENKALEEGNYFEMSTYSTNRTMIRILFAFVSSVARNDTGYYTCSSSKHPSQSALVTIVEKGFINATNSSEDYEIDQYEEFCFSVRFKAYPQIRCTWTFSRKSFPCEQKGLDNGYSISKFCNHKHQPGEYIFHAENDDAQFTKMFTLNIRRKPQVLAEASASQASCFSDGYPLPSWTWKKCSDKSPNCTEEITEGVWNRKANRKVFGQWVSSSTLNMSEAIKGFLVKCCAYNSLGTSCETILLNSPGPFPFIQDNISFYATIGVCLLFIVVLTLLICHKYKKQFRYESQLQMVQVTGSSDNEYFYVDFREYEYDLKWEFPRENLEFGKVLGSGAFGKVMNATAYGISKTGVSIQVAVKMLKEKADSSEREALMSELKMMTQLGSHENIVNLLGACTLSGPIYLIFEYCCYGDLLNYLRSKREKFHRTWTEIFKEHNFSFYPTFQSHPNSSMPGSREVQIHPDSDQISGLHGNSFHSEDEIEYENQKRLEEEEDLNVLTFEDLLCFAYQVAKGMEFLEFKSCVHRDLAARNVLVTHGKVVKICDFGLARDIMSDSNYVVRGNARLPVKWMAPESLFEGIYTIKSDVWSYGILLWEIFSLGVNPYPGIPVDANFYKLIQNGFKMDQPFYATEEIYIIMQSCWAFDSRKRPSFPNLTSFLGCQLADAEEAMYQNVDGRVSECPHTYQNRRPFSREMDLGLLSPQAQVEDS

[7] = target: Insulin-like growth factor 1 receptor (Homo sapiens) (UniProt P08069); assay: Inhibitory activity against IGF1R at 25 uM
[8] = target: Insulin receptor (Homo sapiens, UniProt P06213); assay: Inhibitory activity against IR
[9] = target: Hepatocyte growth factor receptor (Homo sapiens) (UniProt P08581); assay: Inhibitory activity against c-Met at 25 uM
[10] = target: Fibroblast growth factor receptor 1 (Homo sapiens) (UniProt P11362); assay: Inhibitory activity against FGF1R at 25 uM
Chain of Fibroblast growth factor receptor 1 (Homo sapiens) (P11362 22-822 limits assumed): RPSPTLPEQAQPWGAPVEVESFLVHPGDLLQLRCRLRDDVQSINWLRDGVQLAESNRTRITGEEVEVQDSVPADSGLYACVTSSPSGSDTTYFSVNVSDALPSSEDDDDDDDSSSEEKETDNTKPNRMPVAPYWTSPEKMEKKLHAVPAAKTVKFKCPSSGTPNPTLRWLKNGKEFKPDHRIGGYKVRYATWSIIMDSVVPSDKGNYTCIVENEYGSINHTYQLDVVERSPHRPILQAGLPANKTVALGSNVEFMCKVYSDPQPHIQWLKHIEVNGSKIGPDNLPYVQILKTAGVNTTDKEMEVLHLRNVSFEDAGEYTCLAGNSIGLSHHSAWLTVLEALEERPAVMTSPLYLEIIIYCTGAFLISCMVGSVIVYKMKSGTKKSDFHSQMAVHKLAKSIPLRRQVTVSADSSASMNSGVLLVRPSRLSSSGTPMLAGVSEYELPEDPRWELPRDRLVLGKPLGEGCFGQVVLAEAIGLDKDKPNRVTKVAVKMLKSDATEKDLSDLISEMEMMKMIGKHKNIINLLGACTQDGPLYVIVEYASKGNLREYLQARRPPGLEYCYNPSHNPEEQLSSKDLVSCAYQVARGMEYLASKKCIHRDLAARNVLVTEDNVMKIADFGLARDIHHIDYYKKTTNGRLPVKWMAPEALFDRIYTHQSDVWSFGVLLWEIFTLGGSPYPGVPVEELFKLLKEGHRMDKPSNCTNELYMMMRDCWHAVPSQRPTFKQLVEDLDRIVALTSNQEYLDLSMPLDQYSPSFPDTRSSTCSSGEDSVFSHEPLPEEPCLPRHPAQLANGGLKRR

Chain of Hepatocyte growth factor receptor (Homo sapiens) (P08581 whole entry): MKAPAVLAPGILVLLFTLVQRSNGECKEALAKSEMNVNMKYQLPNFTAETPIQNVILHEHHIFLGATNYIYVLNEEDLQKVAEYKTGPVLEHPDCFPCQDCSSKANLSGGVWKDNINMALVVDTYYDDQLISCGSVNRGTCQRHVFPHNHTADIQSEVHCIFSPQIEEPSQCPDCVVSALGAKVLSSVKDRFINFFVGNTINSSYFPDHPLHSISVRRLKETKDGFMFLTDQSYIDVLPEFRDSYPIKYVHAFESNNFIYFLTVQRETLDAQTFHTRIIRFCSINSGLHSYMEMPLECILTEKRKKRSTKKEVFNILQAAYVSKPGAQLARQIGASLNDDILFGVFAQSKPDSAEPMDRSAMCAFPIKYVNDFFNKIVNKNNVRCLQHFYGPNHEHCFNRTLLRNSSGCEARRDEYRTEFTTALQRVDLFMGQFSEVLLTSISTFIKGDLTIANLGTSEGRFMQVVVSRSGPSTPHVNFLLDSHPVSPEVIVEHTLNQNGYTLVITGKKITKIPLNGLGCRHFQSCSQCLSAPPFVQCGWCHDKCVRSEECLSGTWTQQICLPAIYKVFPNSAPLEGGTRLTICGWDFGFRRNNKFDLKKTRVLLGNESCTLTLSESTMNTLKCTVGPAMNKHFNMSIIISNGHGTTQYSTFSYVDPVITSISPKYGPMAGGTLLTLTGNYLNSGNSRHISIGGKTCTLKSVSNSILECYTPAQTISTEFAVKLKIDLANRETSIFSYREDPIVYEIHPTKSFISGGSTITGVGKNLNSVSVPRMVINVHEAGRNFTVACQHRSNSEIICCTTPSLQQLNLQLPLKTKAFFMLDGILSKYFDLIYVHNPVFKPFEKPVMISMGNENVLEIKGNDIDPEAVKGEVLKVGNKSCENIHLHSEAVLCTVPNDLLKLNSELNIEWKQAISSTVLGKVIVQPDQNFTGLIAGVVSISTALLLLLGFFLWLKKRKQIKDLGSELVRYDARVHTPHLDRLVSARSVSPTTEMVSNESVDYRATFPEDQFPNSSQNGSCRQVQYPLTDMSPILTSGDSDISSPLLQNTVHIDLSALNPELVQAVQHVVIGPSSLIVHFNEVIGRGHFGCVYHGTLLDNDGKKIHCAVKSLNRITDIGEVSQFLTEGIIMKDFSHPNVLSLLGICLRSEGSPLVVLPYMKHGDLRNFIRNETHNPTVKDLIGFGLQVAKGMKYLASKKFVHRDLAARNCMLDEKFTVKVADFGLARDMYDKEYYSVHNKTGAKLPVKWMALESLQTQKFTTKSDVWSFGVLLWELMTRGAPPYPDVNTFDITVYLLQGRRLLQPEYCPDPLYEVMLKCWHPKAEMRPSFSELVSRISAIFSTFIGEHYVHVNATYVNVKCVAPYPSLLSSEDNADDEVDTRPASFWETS
Chain of Epidermal growth factor receptor (Homo sapiens) (P00533 whole entry): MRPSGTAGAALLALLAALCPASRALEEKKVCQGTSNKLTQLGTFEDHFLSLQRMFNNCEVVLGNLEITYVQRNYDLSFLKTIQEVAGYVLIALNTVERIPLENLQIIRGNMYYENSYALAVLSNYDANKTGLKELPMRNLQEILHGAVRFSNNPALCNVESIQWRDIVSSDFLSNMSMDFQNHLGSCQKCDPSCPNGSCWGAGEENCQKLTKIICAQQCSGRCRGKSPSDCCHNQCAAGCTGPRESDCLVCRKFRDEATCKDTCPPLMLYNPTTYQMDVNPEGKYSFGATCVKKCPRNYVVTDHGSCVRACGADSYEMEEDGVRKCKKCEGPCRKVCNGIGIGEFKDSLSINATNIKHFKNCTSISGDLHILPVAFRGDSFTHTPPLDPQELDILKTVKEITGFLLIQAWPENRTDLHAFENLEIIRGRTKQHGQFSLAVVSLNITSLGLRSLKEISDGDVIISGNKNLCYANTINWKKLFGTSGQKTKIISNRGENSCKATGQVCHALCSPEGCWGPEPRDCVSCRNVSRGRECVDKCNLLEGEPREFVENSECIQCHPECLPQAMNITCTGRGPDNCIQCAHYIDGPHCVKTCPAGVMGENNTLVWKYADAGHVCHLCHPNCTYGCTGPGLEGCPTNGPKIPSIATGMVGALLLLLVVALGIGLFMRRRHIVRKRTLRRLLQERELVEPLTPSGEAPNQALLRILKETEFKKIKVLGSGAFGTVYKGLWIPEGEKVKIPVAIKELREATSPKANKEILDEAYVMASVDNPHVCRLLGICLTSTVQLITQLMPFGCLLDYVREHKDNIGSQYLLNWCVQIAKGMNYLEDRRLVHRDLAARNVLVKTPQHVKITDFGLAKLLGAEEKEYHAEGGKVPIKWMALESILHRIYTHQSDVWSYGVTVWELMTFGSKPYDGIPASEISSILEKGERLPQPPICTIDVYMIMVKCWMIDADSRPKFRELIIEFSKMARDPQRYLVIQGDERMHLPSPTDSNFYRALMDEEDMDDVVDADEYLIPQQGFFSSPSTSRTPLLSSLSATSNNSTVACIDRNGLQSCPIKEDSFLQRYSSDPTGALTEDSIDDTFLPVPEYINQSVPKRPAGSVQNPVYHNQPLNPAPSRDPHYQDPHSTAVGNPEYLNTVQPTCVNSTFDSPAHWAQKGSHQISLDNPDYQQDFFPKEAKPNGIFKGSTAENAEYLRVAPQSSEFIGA
Chain of Vascular endothelial growth factor receptor 1 (Homo sapiens) (P17948 whole entry): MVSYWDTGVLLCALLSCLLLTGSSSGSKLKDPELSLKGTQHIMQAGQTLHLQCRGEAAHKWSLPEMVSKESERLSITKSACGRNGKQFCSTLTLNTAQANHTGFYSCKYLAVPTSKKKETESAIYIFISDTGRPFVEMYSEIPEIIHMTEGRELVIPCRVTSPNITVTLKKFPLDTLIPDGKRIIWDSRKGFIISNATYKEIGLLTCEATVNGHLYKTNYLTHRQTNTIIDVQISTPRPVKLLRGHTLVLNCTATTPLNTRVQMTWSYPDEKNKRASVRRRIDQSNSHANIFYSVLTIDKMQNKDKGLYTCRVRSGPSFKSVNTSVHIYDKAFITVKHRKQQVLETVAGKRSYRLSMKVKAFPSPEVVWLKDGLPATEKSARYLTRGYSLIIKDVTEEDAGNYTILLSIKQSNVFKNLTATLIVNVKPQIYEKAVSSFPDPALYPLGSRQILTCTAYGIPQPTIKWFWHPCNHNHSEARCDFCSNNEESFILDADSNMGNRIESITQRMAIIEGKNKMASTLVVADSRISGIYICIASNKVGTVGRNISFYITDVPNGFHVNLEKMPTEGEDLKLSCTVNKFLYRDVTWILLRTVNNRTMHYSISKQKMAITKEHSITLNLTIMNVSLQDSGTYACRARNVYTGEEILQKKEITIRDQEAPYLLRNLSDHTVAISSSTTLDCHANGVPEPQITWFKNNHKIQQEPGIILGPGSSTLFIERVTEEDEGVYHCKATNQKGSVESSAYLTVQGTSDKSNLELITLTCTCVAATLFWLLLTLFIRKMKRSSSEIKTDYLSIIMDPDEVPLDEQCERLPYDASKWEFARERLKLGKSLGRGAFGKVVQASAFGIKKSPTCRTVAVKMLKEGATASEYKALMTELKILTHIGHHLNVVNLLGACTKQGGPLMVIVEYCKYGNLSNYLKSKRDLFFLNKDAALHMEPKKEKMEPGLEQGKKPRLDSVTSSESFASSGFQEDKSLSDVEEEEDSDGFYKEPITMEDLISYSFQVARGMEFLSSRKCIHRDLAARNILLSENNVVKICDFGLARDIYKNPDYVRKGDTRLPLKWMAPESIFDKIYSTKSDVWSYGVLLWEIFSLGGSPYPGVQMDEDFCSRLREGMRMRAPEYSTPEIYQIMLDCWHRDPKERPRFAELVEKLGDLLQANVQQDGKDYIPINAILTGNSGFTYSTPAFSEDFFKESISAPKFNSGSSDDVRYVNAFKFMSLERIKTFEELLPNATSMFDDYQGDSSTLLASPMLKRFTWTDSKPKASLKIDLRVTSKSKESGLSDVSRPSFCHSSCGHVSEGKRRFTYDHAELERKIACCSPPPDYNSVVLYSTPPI

SMILES | pIC50 [1] | further results
O=C(Nc1ccc2c(c1)C=Nc1c(Cl)ncnc1O2)Nc1ccc(Cl)c(C(F)(F)F)c1 |  | Activity [2]: inactive; pIC50 [3]: 5.02; Activity [4]: inactive; Activity [5]: inactive; pIC50 [6]: 6.35; Activity [7]: inactive; pIC50 [8]: 5.02; Activity [9]: inactive; Activity [10]: inactive
O=C(Nc1ccc2c(c1)CNc1c(Cl)ncnc1O2)Nc1ccc(Cl)c(C(F)(F)F)c1 |  | pIC50 [6]: 4.86
Cc1ccc(C(=O)Nc2ncc(Nc3ncnc4c3NCc3ccccc3O4)cn2)cc1 | 5.43 | 
O=C(Nc1ccc2c(c1)CNc1cnc(Cl)nc1O2)Nc1ccc(Cl)c(C(F)(F)F)c1 |  | pIC50 [6]: 6.05
COc1ccc2c(c1)CNc1c(Nc3cnc(NC(=O)c4ccc(C)cc4)nc3)ncnc1O2 | 5.46 | 
CCN(CC)c1ccc2c(c1)Oc1ncnc(Nc3cnc(NC(=O)c4ccccc4)nc3)c1NC2 | 5.30 | 
COc1cccc2c1Oc1ncnc(Nc3cnc(NC(=O)c4ccccc4)nc3)c1NC2 | < 5.00 | 
COc1cccc2c1CNc1c(Nc3cnc(NC(=O)c4ccccc4)nc3)ncnc1O2 | 5.66 | 

Now from value to compound, other results behind:

pIC50 [1] | SMILES | further results
5.92 | COc1cc2c(cc1OC)Oc1ncnc(Nc3cnc(NC(=O)c4ccc(C)cc4)nc3)c1NC2 | 
5.72 | O=C(Nc1ncc(Nc2ncnc3c2NCc2ccccc2O3)cn1)c1ccccc1 | 
5.96 | COc1ccc2c(c1)CNc1c(Nc3cnc(NC(=O)c4cccc(F)c4)nc3)ncnc1O2 | 
6.48 | COc1ccc2c(c1)Oc1ncnc(Nc3cnc(NC(=O)c4ccc(F)cc4)nc3)c1NC2 | 
6.22 | COc1ccc2c(c1)Oc1ncnc(Nc3cnc(NC(=O)c4ccccc4)nc3)c1NC2 | 
5.96 | COc1cc2c(cc1OC)Oc1ncnc(Nc3cnc(NC(=O)c4cccc(F)c4)nc3)c1NC2 | 
6.49 | COc1ccc2c(c1)Oc1ncnc(Nc3cnc(NC(=O)c4cccc(F)c4)nc3)c1NC2 | 
6.01 | COc1ccc2c(c1)CNc1c(Nc3cnc(NC(=O)c4ccccc4)nc3)ncnc1O2 | 
6.33 | COc1cc2c(cc1OC)Oc1ncnc(Nc3cnc(NC(=O)c4ccccc4)nc3)c1NC2 | 
